Test results: US8728797B2, “Yeast membrane protein expression system and its application in drug screening” (priority 2001, dated 2014)
In brackets after ≈: the same amount, converted by molar mass.

Legend:
Cdr1p ATPase = assay: Oligomycin sensitive ATPase/NTPase activity of AD1002 plasma membranes; type: biochemical, C. albicans; conditions: ratio of inhibitory concentrations Cdr1p/Pdr5p
Experimental: Membrane fractions were isolated from S. cerevisiae AD1002 (▪) or parental AD1-8u^− cells (●). ATPase assays were carried out at 30° C. for 30 min, as described in Materials and methods for Example 2. The oligomycin-sensitive activity was determined as the difference in ATPase activity in the presence and absence of 20 μM oligomycin. […] The results are the means (+/−SD) of four determinations carried out on two membrane preparations.
(B) Inhibition profile with KN20 on the oligomycin-sensitive Cdr1p ATPase activity of plasma membranes from AD1002 minus the oligomycin-sensitive ATPase activity of plasma membranes from the isogenic AD1-8u^− strain.
Yeast were grown in YEPD, pH 5.5 at 30° C. until they reached late-exponential phase of growth (OD600 nm=7), washed twice in ice-cold distilled water, and incubated on ice for 30 min to minimize glucose-stimulated Pma1p activity. Cells were resuspended in homogenising medium (50 mM Tris pH 7.5, 2 mM EDTA and 1 mM phenylmethylsulfonyl fluoride) and disrupted using a Braun Homogeniser. Cell debris and unbroken cells were removed by centrifuging at 2,000×g at 4° C. for 10 min. A crude membrane fraction was isolated from the cell-free supernatant by centrifuging at 30,000×g at 4° C. for 45 min. Plasma membranes were prepared by centrifugation of the supernatant obtained after selective precipitation of mitochondria at pH 5.2 as described previously (Goffeau, A. and Dufour, J. P., 1988). The plasma membranes were resuspended in 10 mM Tris pH 7.0, 0.5 mM EDTA and 20% [v/v] glycerol and stored at −80° C. Protein was determined using a micro-Bradford (Bio-Rad Laboratories, Hercules, Calif. [Bradford, M. M., 1976]) assay with gamma-globulin as standard. Nucleotide triphosphatase activity was measured by incubating the plasma membrane fractions (10 μg) at 30° C. in a final volume of 120 μl containing 6 mM NTP, 7 mM MgSO4 in 59 mM MES-Tris buffer pH 6.0-8.0. To eliminate possible contributions from nonspecific phosphatases, vacuolar, or mitochondrial ATPases, 0.2 mM ammonium molybdate, 50 mM KNO3 and 10 mM NaN3, respectively, were included in assays (Monk B C, et al, 1991). Other ATPase inhibitors (20 μM oligomycin, 20 μM aurovertin B or 100 μM vanadate were added to the reaction where indicated. After 30 min the reaction was stopped by adding 130 μl of a solution containing 1% (w/v) SDS, 0.6 M H2SO4, 1.2% (w/v) ammonium molybdate and 1.6% (w/v) ascorbic acid. Inorganic phosphate released from NTPs was measured at 750 nm after 10 min incubation at room temperature.

[1] = test system: S. cerevisiae AD1-8u^− hyper-expressing CDR1-2; assay: MIC, CDR1 allele 2 hyper-expressed; type: cell-based; conditions: Saccharomyces cerevisiae; hyper-expression of CDR1-2 allele
Experimental: (§1) The MICs of antifungal agents for S. cerevisiae cells were determined by a microdilution test based on the macrodilution reference method of the National Committee for Clinical Laboratory Standards. Cells (10 μl cell suspension, 2×10^5 cells/ml) were inoculated into 90 μl CSM-URA, buffered with 10 mM 2-(N-morpholino)ethanesulfonic acid (MES) and 18 mM N-2-hydroxyethylpiperazine-N′-2-ethanesulfonic acid (HEPES), pH 7.0 and containing 0.67% (w/v) yeast nitrogen base (YNB) in microtitre plate wells. For the uracil-requiring strain AD1-8u^− the medium was supplemented with 0.02% (w/v) uridine. The wells contained, in […], doubling dilutions of antifungal agents (final concentrations: fluconazole, 40-0.078 μg/ml; itraconazole and ketoconazole, 8-0.016 μg/ml). The microtitre plates were incubated at 30° C. for 48 h with shaking and then the growth of cells in individual wells (OD590) was measured with a microplate reader (EL 340, Bio-Tek, Winooski, Vt.). The MIC80 was the lowest concentration of drug that inhibited growth yield by at least 80% compared to a no-drug control.

AD-PDR5 (Pdr5p) = assay: MIC in liquid microdilution assay, AD-PDR5; type: cell-based, S. cerevisiae; conditions: Saccharomyces cerevisiae
Experimental: as §1

AD-CDR1 (Cdr1p) = assay: MIC in liquid microdilution assay, AD-CDR1; type: cell-based, S. cerevisiae; conditions: Saccharomyces cerevisiae
Experimental: as §1

[2] = test system: selected respiratory competent construct expressing Cdr1p; assay: MIC, corrected Cdr1p construct; type: cell-based, S. cerevisiae; conditions: Saccharomyces cerevisiae; construct corrected with linear PCR fragment
Experimental: as §1

S. cerevisiae AD1-8u^− = assay: MIC microdilution test, parental strain; type: cell-based; conditions: Saccharomyces cerevisiae; AD1-8u^− parental strain; 30° C., 48 h, pH 7.0
Experimental: as §1

[3] = test system: S. cerevisiae AD1-8 sec6-4/CDR1; assay: MIC microdilution test, sec6-4 host with CDR1; type: cell-based; conditions: Saccharomyces cerevisiae, 30° C.
Experimental: as §1

AD-ERG11 (Erg11p) = assay: Disk diffusion assay, AD-ERG11; type: cell-based, S. cerevisiae; conditions: AD-pABC as negative control, 30° C., 48 h
Experimental: The cells were spread on CSM-agar plates and exposed to the drugs or chemicals applied to filter disks and incubated at 30° C. for 48 h. The amounts of individual drugs are given in the Materials and Methods section of Example 3. Rhodamine 6G and rhodamine 123 were dissolved in ethanol and the other antifungals were dissolved in DMSO.
Drug susceptibility was measured using disk assays on CSM-URA plates (containing 1.5% w/v agar). Yeast cells (200 μl ml of 5×10^6 cells/ml) were spread on the plates. 10 μl of drug solution or solvent control were spotted onto sterile Whatman paper disks on the pre-spread plates. The following amounts (nmoles) of drugs were applied to individual disks: fluconazole, 633 (Pfizer Ltd., Sandwich, Kent, United Kingdom); itraconazole, 0.23 (Janssen); miconazole, 0.42 (Janssen); cycloheximide, 0.71 (Sigma); rhodamine 6G, 100 (Sigma, Penrose, Auckland, N. Z.); rhodamine 123, 125 (Sigma); cerulenin 4.5 (Sigma); 5-flucytosine 100 (Sigma); amphotericin B, 97 (E. R. Squibb & Sons, Princeton, N.J.); nystatin 65 (Sigma). Agar plates were incubated at 30° C. for 48 h or until clear growth inhibition zones were visible.

AD1002 cells = assay: Glucose-dependent rhodamine 6G efflux; type: cell-based, S. cerevisiae; conditions: fluconazole 10 μM in preincubation and all later steps; 10 min after glucose
Experimental: The efflux of rhodamine 6G at 30° C. was followed by direct measurement of fluorescence in cell supernatants following glucose (2 mM) addition to cell suspensions. […] The indicated concentrations of KN20 were added to AD124567 cells preloaded with rhodamine 6G, the cells were preincubated for 5 minutes at 30° C. and glucose added to commence rhodamine efflux.
A previously described method (Kolaczkowski, M et al. 1996) was adapted to measure rhodamine 6G (Sigma) efflux from whole cells. Yeast cells from exponentially growing cultures in YEPD (OD600 nm=0.5) were collected by centrifugation (3,000×g, 5 min, 20° C.) and washed three times with water. The washed cells were resuspended at a concentration of 0.5×10^6 to 1.0×10^7 cells per ml in HEPES-NaOH (50 mM, pH 7.0) containing 5 mM 2-deoxyglucose and 10 μM rhodamine 6G. In some experiments fluconazole (10 μM) was also added. Cell suspensions were incubated at 30° C. with shaking for 90 min to allow rhodamine accumulation under glucose starvation conditions. The starved cells were washed twice in 50 mM HEPES-NaOH pH 7.0, and portions (400 μl) incubated at 30° C. for 5 min before addition of glucose (final concentration 2 mM) to initiate rhodamine efflux. […] The rhodamine 6G fluorescence of samples was measured using a Cary Eclipse spectrofluorimeter (Varian Inc, Victora Australia). […]

[4] = test system: initial construct in AD1-8u^− with barely detectable Cdr1p; assay: MIC, initial defective Cdr1p construct; type: cell-based, S. cerevisiae; conditions: Saccharomyces cerevisiae
Experimental: as §1

Compound: D-octapeptide NH2-Asn-Trp-Trp-Lys-Val-Arg-Arg-Arg-CONH2 with a single 4-methoxy-2,3,6-trimethylbenzenesulphonyl (Mtr) substituent on one tryptophan sidechain; Pdr5p inhibitor [KN20]
- Cdr1p ATPase inhibition concentration relative to Pdr5p ATPase (Cdr1p ATPase): 2.7 fold

Compound: OC(Cn1cncn1)(Cn1cncn1)c1ccc(F)cc1F [fluconazole]
- MIC [1]: 80 µg/mL (≈ 261 µM)
- MIC (AD-PDR5 (Pdr5p)): 400 µg/mL (≈ 1310 µM)
- MIC (AD-CDR1 (Cdr1p)): 400 µg/mL (≈ 1310 µM)
- MIC [2]: 400 µg/mL (≈ 1310 µM)
- MIC80 (S. cerevisiae AD1-8u^−): 0.625 µg/mL (≈ 2.04 µM)
- MIC80 [3]: 80 µg/mL (≈ 261 µM)
- resistance/sensitivity in disk diffusion assay (AD-ERG11 (Erg11p)): modest resistance
- reduction in the concentration of released rhodamine 6G (AD1002 cells): 32%
- MIC [4]: 20 µg/mL (≈ 65.3 µM)
